# “Also recorded” adds a separate entry of the source.
# How the values were obtained:
# Klf10 expression = test: Real-time PCR of Kmt2d target gene Klf10 in spleen cells; assay type: in vivo, mouse; settings: AR-42 treatment (10 mg/kg/day); FIG. 26
# Procedure: Real-time PCR was performed using Kmt2d-specific probes for exons 20 and 52 (Mm_02600438 and Mm_01717664, respectively) from TaqMan® Gene Expression Assays (Life Technologies, Carlsbad, Calif.). For a comparison of transfection efficiencies for indicator constructs in transient transfection studies, real-time PCR was performed using SYBR Green Real-Time PCR Master Mix (Life Technologies, Carlsbad, Calif.) and primers IND-F-([…]; SEQ ID NO: 5) and IND-R-([…]; SEQ ID NO: 6) that are specific for the H3K4 methylation indicator. For expression analysis for KMT2D target gene KLF10, real-time PCR was performed using Klfl0-specific expression assay (Mm00449812_m1) from TaqMan® Gene Expression Assays (Life Technologies, Carlsbad, Calif.).
# [1] = test system: H3K4 trimethylation machinery (H3K4me3 indicator); test: H3K4 trimethylation (H3K4me3) indicator reporter allele, FACS; assay type: cell-based
# Excerpt: An H3K4 trimethylation reporter was also created (FIG. 5B). This reporter is based on the H3 tail on one end and the TBP associated factor III (TAFIII) […] on the other end; the TAFIII […] only identifies and binds to trimethylated K4 on H3. When the H3K4 site gets trimethylated, the TAFIII […] can bind to the modified H3 tail and bring the two parts of the separated GFP in close proximity. The activity of the epigenetic modification system can be quantified through fluorescence.
# Epigenetic reporter alleles were synthesized (OriGene, Rockville, Md.) using published sequences for component elements (Baird et al. (1999) Proc. Natl. Acad. Sci. 96:11241-6; Souslova et al. (2007) BMC Biotechnol. 7:37). Single nucleotide mutations were created using the QuickChange Lightening kit (Agilent Technologies Inc, Santa Clara, Calif.). […] FACS data were analyzed using FlowJo (Tree Star Inc, Ashland, Oreg.). […]
# Epigenetic reporter systems were created that monitor either H4 acetylation or H3K4 trimethylation machinery activity in an effort to determine whether there is an ongoing activity deficiency in cells from Kmt2d^+/βGeo mice (FIG. 18A). Both reporter alleles encode halves of green fluorescent protein separated by a flexible linker region (Baird et al. (1999) Proc. Natl. Acad. Sci. 96: 11241-6) with a histone tail and a histone reader at the N- and C-termini, respectively. […]
compound,measurement,setting,value
"CC(C)[C@H](C(=O)Nc1ccc(C(=O)NO)cc1)c1ccccc1 [AR-42, (S)—N-hydroxy-4-(3-methyl-2-phenylbutanamido)benzamide]",Klf10 expression in spleen cells of Kmt2d+/βGeo mice,Klf10 expression,normalization of expression of Klf10; also recorded: normalized
same,H3K4me3 indicator response to increasing levels of drug,[1]; FIG. 18F,dose dependent response
same,cell numbers,"[1]; at higher doses, FIG. 18F (red line)",decreased cell numbers

# From US11357748B2, “Methods for treating mendelian disorders of the epigenetic machinery” (THE JOHNS HOPKINS UNIVERSITY, priority 2014, dated 2022)
